Patent US11999746B2, “Compounds” (GlaxoSmithKline Intellectual Property Development Limited, priority 2014, dated 2024)

Legend:
Lp-PLA2 in human plasma = target: T1, Lp-PLA2 in human plasma (Homo sapiens, UniProt Q13093); experiment: (3a) Lp-PLA2 human plasma Thio-PAF assay; assay type: biochemical; conditions: (3a) Thio-PAF assay, pooled human plasma; Examples 1-265 and 413-430 were tested here; read-out: pIC50 in the Lp-PLA2 human plasma assay (converted)
T1 construct: from tissue; host or cells: pooled human plasma
T1 sequence (Q13093 22-441): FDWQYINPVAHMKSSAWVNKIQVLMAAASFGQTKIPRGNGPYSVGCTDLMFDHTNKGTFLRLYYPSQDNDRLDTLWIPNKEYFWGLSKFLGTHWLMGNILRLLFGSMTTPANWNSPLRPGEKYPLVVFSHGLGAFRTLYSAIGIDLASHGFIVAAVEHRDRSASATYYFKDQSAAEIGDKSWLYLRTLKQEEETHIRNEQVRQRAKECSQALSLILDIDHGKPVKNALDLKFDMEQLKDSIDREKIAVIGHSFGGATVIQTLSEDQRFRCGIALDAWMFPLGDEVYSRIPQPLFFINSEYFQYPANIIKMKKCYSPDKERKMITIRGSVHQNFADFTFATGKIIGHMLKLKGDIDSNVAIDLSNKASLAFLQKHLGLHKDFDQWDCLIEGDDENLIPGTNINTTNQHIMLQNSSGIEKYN
Description: (3) Lipoprotein-Associated Phospholipase A2 (Lp-PLA2) Human Plasma Assay
The human plasma assay utilizes a thioester analog of PAF (phosphatidylcholine), where hydrolysis yields to the formation of a phospholipid containing a free thiol group. The amount of thiol is quantitated continuously by reacting with CPM (7-diethylamino-3-(4′-maleimidylphenyl)-4-methylcoumarin), a maleimide which increases in fluoresence after Michael addition of thiols. This assay may detect the activity of Lp-PLA2 in human plasma, as determined by specific inhibition by Lp-PLA2 inhibitors.
The thio-PAF assay was run as a quenched 15 μL assay. Compounds source plate was prepared by making 1:3 (by volume) serial dilution of the compounds into pure DMSO on 384-well microplate. 0.01 μL of compounds on compound source plate were transferred to 384 well Greiner 784076 (black) low-volume plates by ECHO liquid dispenser. 8 μL pooled human plasma, which was previously aliquoted and frozen, was added. Plates were centrifuged for 10 sec at 500 rpm. After 30 minutes preincubation, 2 μL of substrate solution comprising 2.5 mM 2-thio-PAF [from ethanol stock], 32 μM CPM [from a DMSO stock] and 3.2 mM NEM (N-ethylmaleimide) [made fresh daily in DMSO] in assay buffer of 50 mM HEPES, pH 7.4, 150 mM NaCl, 1 mM CHAPS was added to 384 well Greiner 784076 (black) low-volume plates by BRAVO liquid handling station. After 2 mins, reaction was quenched with 5 μL of 5% aqueous trifluoroacetic acid (TFA). Plates were covered to protect from light and incubated for 40 min at room temperature. Plates were read at ex: 380/em: 485 using Envision microplate reader. PIC50 data, curve and QC analysis were conducted by using XLFit module in Excel.

[1] = target: T2, recombinant human Lp-PLA2 (Homo sapiens, UniProt Q13093); experiment: (1a) PED6 assay, recombinant human Lp-PLA2 (rhLp-PLA2); assay type: biochemical; conditions: Examples 1-167 and 413-430 were tested here, one experiment or average of multiple experiments, read-out: rhLp-PLA2 (pIC50) (converted)
T2 sequence (Q13093 22-441): T1 sequence (Q13093 22-441)
Description: (1) Recombinant Human Lp-PLA2 Assays (rhLp-PLA2)
N-((6-(2,4-Dinitrophenyl)amino)-hexanoyl)-2-(4,4-difluoro-5,7-dimethyl-4-bora-3a,4a-diaza-s-indacene-3-pentanoyl)-1-hexadecanoyl-sn-glycero-3-phosphoethanolamine, triethylammonium salt (PED6) is a commercially available fluorescently-labeled phospholipid, which is commercially available from Invitrogene and Molecular Probes. There is a quenching […] and a Bodipy fluorescein (FL) group in the sn2 position. Upon cleavage with Lp-PLA2, the Bodipy FL group is liberated and then may result in an increase in fluorescence. Inhibitors of Lp-PLA2 therefore prevent this cleavage and no fluorescent increase is observed.
The PED6 assay was run as an unquenched 10 μL assay. The source plate containing the compounds to be tested was prepared by making 1:3 (by volume) serial dilution of the compounds within DMSO on 384-well microplate. Then, 0.01 μL of the compounds on compound source plate were transferred into 384 well Greiner 784076 (black) plates using ECHO liquid dispenser. 5 μL of recombinant human Lp-PLA2 enzyme (4 nM) rhLp-PLA2 in assay buffer of 50 mM HEPES, pH 7.4, 150 mM NaCl, 1 mM CHAPS) was added to each well of the plate. Plates were centrifuged for 10 sec at 500 rpm. After 30 minutes preincubation, 5 μL of substrate (4 μM PED6 [from 5 mM DMSO stock] in assay buffer of 50 mM HEPES, pH 7.4, 150 mM NaCl, 1 mM CHAPS) was added to 384 well Greiner 784076 (black) plates. Plates were centrifuged for 10 sec at 500 rpm. The plate was covered to protect it from light and incubated for 20 min at room temperature. The plates were read for fluorescence intensity at ex: 480/em: 540 using ViewLux microplate imager for Envision spectrofluroimeters. pIC50 data, curve and QC analysis was conducted by using XL fit module in Excel.

Compound	IC50 (Lp-PLA2 in human plasma) [nM]	IC50 [1] [nM]
CN1c2cc(OCc3cccc(F)c3)nc(=O)n2CC12CCC2 [Example 413]	≤ 10000	≤ 100
CN1c2cc(OCc3cc(F)c(F)c(F)c3)nc(=O)n2CC12CCCC2 [Example 414, 1′-methyl-7′-((3,4,5-trifluorobenzyl)oxy)-1′H-spiro[cyclopentane-1,2′-imidazo[1,2-c]pyrimidin]-5′(3′H)-one]	≤ 100	≤ 100
CN1c2cc(OCc3cc(F)c(F)cc3F)nc(=O)n2CC12CCCC2 [Example 415, 1-methyl-7′-((2,4,5-trifluorobenzyl)oxy)-1′H-spiro[cyclopentane-1,2′-imidazo[1,2-c]pyrimidin]-5′(3′H)-one]	≤ 10000	≤ 100
CN1c2cc(OCc3ccc(F)cc3F)nc(=O)n2CC12CCC2 [Example 416, 7′4(2,4-difluorobenzyhoxy)-1-methyl-1H-spiro[cyclobutane-1,2′-imidazo[1,2-c]pyrimidin]-5′(3′H)-one]	≤ 10000	≤ 100
CN1c2cc(OCc3cccc(F)c3)nc(=O)n2CC12CCCCC2 [Example 417]	≤ 10000	≤ 100
CN1c2cc(OCc3cccc(F)c3)nc(=O)n2CC12CCCC2 [Example 418]	≤ 100	≤ 100
CN1c2cc(OCc3ccc(F)cc3F)nc(=O)n2CC12CCCC2 [Example 419, 7′4(2,4-difluorobenzyhoxy)-1-methyl-1H-spiro[cyclopentane-1,2′-imidazo[1,2-c]pyrimidin]-5′(3′H)-one]	≤ 10000	≤ 100
CN1c2cc(OCc3cccc(F)c3F)nc(=O)n2CC12CCC2 [Example 420, 7′4(2,3-difluorobenzyhoxy)-1-methyl-1H-spiro[cyclobutane-1,2′-imidazo[1,2-c]pyrimidin]-5′(3′H)-one]	≤ 10000	≤ 100
CN1c2cc(OCc3cc(F)c(F)c(F)c3)nc(=O)n2CC12CCCCC2 [Example 422, 1′-methyl-7′-((3,4,5-trifluorobenzyl)oxy)-1′H-spiro[cyclohexane-1,2′-imidazo[1,2-c]pyrimidin]-5′(3′H)-one]	≤ 10000	≤ 100

The remaining lines, values ahead:

IC50 (Lp-PLA2 in human plasma) [nM]	IC50 [1] [nM]	Compound
≤ 100	≤ 1	O=c1nc(OCc2cc(F)c(Oc3ccnc(C(F)(F)F)c3)c(F)c2)cc2n1CC1OCCCN21 (single isomer, unassigned) [Example E162, 7-((3,5-difluoro-4-((2-(trifluoromethyl)pyridin-4-yl)oxy)benzyl)oxy)-3,4,11,11a-tetrahydropyrimido[6′,1′:2,3]imidazo[5,1-b][1,3]oxazin-9(2H)-one]
≤ 10000	≤ 100	O=c1nc(OCc2cc(F)c(Oc3ccnc(C(F)(F)F)c3)c(F)c2)cc2n1CC1OCCCN21 (single isomer, unassigned) [Example E163, 7-((3,5-difluoro-4-((2-(trifluoromethyl)pyridin-4-yl)oxy)benzyl)oxy)-3,4,11,11a-tetrahydropyrimido[6′,1′:2,3]imidazo[5,1-b][1,3]oxazin-9(2H)-one]
≤ 100	≤ 1	O=c1nc(OCc2cc(F)c(Oc3ccnc(C(F)(F)F)c3)c(F)c2)cc2n1CC1OCCN21 (single isomer, unassigned) [Example E164, 6-((3,5-difluoro-4-((2-(trifluoromethyl)pyridin-4-yl)oxy)benzyl)oxy)-10,10a-dihydro-2H-oxazolo[3′,2′:3,4]imidazo[1,2-c]pyrimidin-8(3H)-one]
≤ 100	≤ 100	O=c1nc(OCc2cc(F)c(Oc3ccnc(C(F)(F)F)c3)c(F)c2)cc2n1CC1OCCN21 (single isomer, unassigned) [Example E165, 6-((3,5-difluoro-4-((2-(trifluoromethyl)pyridin-4-yl)oxy)benzyl)oxy)-10,10a-dihydro-2H-oxazolo[3′,2′:3,4]imidazo[1,2-c]pyrimidin-8(3H)-one]
	≤ 10000	N#Cc1ccc(COc2cc3n(c(=O)n2)CC2CCCCN32)cc1 (centres unmarked) [Example E4, 4-(((1-Oxo-6,7,8,9,9a,10-Hexahydro-1H-pyrido[1′,2′:3,4]imidazo[1,2-c]pyrimidin-3-yl)oxy)methyl)benzonitrile]
	≤ 10000	O=c1nc(OCc2ccc(C(F)(F)F)c(Cl)c2)cc2n1CC1CCCCN21 (centres unmarked) [Example E7, 3-((3-Chloro-4-(trifluoromethyl)benzyl)oxy)-6,7,8,9,9a,10-hexahydro-1H-pyrido[1′,2′:3,4] imidazo[1,2-c]pyrimidin-1-one]
	≤ 10000	Cc1ccc(COc2cc3n(c(=O)n2)CC2CCCCN32)cc1 (centres unmarked) [Example E9, 3-((4-Methylbenzyl)oxy)-6,7,8,9,9a,10-hexahydro-1H-pyrido[1,2′:3,4]imidazo[1,2-c] pyrimidin-1-one]
	≤ 10000	O=c1nc(OCc2ccc(F)c(C(F)(F)F)c2)cc2n1CC1CCCCN21 (centres unmarked) [Example E13, 3-((4-Fluoro-3-(trifluoromethyl)benzyl)oxy)-6,7,8,9,9a,10-hexahydro-1H-pyrido-[1′,2′:3,4] imidazo[1,2-c]pyrimidin-1-one]
	≤ 100	CN(Cc1ccc(F)cc1F)c1cc2n(c(=O)n1)C[C@@H]1CCCCN21 [Example E61, (S)-3-((2,4-Difluorobenzyl)(methyl)amino)-6,7,8,9,9a,10-hexahydro-1H-pyrido[1′,2′:3,4] imidazo[1,2-c]pyrimidin-1-one]
	≤ 1	O=c1nc(OCc2cc(F)c(Oc3ccnc(C(F)(F)F)c3)c(F)c2)cc2n1C[C@H]1CCCN21 [Example E67, (R)-3-((3,5-difluoro-4-((2-(trifluoromethyl)pyridin-4-yl)oxy)benzyl)oxy)-7,8,8a, 9-tetra hydropyrrolo[1′,2′:3,4]imidazo[1,2-c]pyrimidin-1(6H)-one]
	≤ 1	O=c1nc(OCc2cc(F)c(Oc3ccnc(C(F)(F)F)c3)c(F)c2)cc2n1C[C@@H]1CCCN21 [Example E71, (S)-3-((3,5-difluoro-4-((2-(trifluoromethyl)pyridin-4-yl)oxy)benzyl)oxy)-7,8,8a, 9-tetra hydropyrrolo[1′,2′:3,4]imidazo[1,2-c]pyrimidin-1(6H)-one]
≤ 10000		O=c1nc(OCc2cc(F)c(OC3(CCF)CC3)c(F)c2)cc2n1C[C@@H]1COCCN21 [Example E258, (R)-7-((3,5-difluoro-4-(1-(2-fluoroethyl)cyclopropoxy)benzyl)oxy)-3,4,11,11a-tetrahydropyrimido[6′,1′:2,3]imidazo[5,1-c][1,4]oxazin-9(1H)-one]
≤ 10000		O=c1nc(OCc2cc(F)c(OC3(CCF)CC3)c(F)c2)cc2n1C[C@H]1COCCN21 [Example E262, (S)-7-((3,5-difluoro-4-(1-(2-fluoroethyl)cyclopropoxy)benzyl)oxy)-3,4,11,11a-tetrahydropyrimido[6′,1′:2,3]imidazo[5,1-c][1,4]oxazin-9(1H)-one]
